In patent US20090181898A1, “ABUSE-RESISTANT A[…]” (SHIRE LLC, priority 2002, published 2009):
Several values for one entry are separate records, joined by “and”; a condition that tells them apart may be missing. Equal values may be shown once. Read-outs that look alike come from different tables or passages of the source.

Legend:
rats = assay: Single oral dose toxicity; assay type: in vivo, Sprague Dawley rats; conditions: rat
Experimental: Three male and three female Sprague Dawley rats per group were given a single oral administration of L-lysine-d-amphetamine at 0.1, 1.0, 10, 60, 100, or 1000 mg/kg (Table 53).
Animals found dead, or sacrificed moribund were necropsied and discarded.

[1] = Clinical steady-state pharmacokinetics, 70 mg capsules once daily for 7 days, healthy adults, fasting
Experimental: Patients fasted for at least 10 hours before and 4 hours after final dosing. Venous blood samples (7 mL) were drawn into EDTA vacutainers both before medication dosing on days 0, 1, 6, and 7 (in the morning) and at 16 time points (hours 0.5, 1, 1.5, 2, 3, 4, 5, 6, 7, 8, 10, 12, 16, 24, 48, and 72) after final dosing on day 7. Immediately after sample collection, vacutainer tubes were centrifuged at 3000 rpm at 4° C. for 10 minutes; within 1 hour of collection, they were stored at −20° C.

[2] = Pharmacokinetics in male beagle dogs after oral or 30-min intravenous administration, 1 mg/kg (LC/MS/MS); assay type: in vivo; conditions: for AUC(0-t): read-out: AUC0-t of L-lysine-d-amphetamine; for AUC(0-inf): read-out: AUCinf of L-lysine-d-amphetamine; for Cmax: read-out: Cmax of L-lysine-d-amphetamine; for MRT: read-out: MRT of L-lysine-d-amphetamine; for half-life: read-out: t1/2 of L-lysine-d-amphetamine (converted)
From the text: This was a non-randomized, two-treatment crossover study. All animals were maintained on their normal diet and were fasted overnight prior to each dose administration. L-lysine-d-amphetamine dose was based on the body weight measured on the morning of each dosing day. The actual dose delivered was based on syringe weight before and after dosing. Serial blood samples were obtained from each animal by direct venipuncture of a jugular vein using vacutainer tubes containing sodium heparin as the anticoagulant. Derived plasma samples were stored frozen until shipment to Quest Pharmaceutical Services, Inc. (Newark, Del.). Pharmacokinetic analysis of the plasma assay results was conducted by Calvert. Animals were treated as follows:
Oral: The test article was administered to each animal via a single oral gavage. On Day 1, animals received the oral dose by gavage using an esophageal tube attached to a syringe. Dosing tubes were flushed with approximately 20 mL tap water to ensure the required dosing solution was delivered.
Intravenous: On Day 8, animals received L-lysine-d-amphetamine as a single 30-minute intravenous infusion into a cephalic vein.
Blood: Serial blood samples (2 mL) were collected using venipuncture tubes containing sodium heparin. Blood samples were taken at 0, 0.25, 0.5, 1, 2, 4, 8, 12, 24, 48, and 72 hours post-oral dosing. […] Collected blood samples were chilled immediately.
Microsoft Excel (Version 6, Microsoft Corp., Redmond, Wash.) was used for calculation of mean plasma concentration and graphing of the plasma concentration-time data. Pharmacokinetic analysis (non-compartmental) was performed using the WinNonlin® software program (Version 4.1, Pharsight, Inc. Mountain View, Calif.). The maximum concentration (Cmax) and the time to Cmax(Tmax) were observed values. The area under the plasma concentration-time curve (AUC) was determined using linear-log trapezoidal rules. The apparent terminal rate constant (λz) was derived using linear least-squares regression with visual inspection of the data to determine the appropriate number of points (minimum of 3 data points) for calculating λz. The AUC0-inf was calculated as the sum of AUC0-t and Cpred/λz, where Cpred was the predicted concentration at the time of the last quantifiable concentration. The plasma clearance (CL/F) was determined as the ratio of Dose/AUC0-inf. The mean residence time (MRT) was calculated as the ratio of AUMC0-inf/AUC0-inf where AUMC0-inf was the area under the first moment curve from the time zero to infinity. The volume of distribution at steady state (Vss) was estimated as CL*MRT. Half-life was calculated as ln 2/λz. The oral bioavailability (F) was calculated as the ratio of AUC0-inf following oral dosing to AUC0-inf following intravenous dosing. Descriptive statistics (mean and standard deviation) of the pharmacokinetic parameters were calculated using Microsoft Excel.
Blood samples were collected up to 24 and 72 hours after the intravenous and oral doses, respectively.

[3] = Stability under treatment with commercially available acids and bases; assay type: physicochemical; conditions: 20° C.
Experimental: For acids and bases (Table 59), 10 mg of Lys-Amp was mixed with 2 mL of each stock solution, and the solution was shaken at 20° C. For enzyme treatment (Table 60), 10 mg Lys-Amp was mixed with 5 mL of each enzyme cocktail, and the solution was shaken at 37° C. […] Many of the commercially available reagents also contained various solvents and/or surfactants.
Unless otherwise indicated, solutions were used directly from the container and were combined with neat Lys-Amp solid. Lewis Red Devil® Lye, Enforcer Drain Care® Septic Treatment, and Rid-X® Septic Treatment were prepared as saturated solutions in H2O. Enzymes used were purchased from Sigma and directly dissolved in water (3 mg/mL pepsin, 10 mg/mL pancreatin, 3 mg/mL pronase, 3 mg/mL esterase), while enzyme-containing nutraceuticals such as Omnigest® and VitälZym® were first either crushed or opened (1 tablet or capsule per 5 mL of H2O).

[4] = Oral pharmacokinetics of L-lysine-d-amphetamine diHCl compared to d-amphetamine sulfate (ELISA); conditions: rat; for Plasma concentrations of d-amphetamine, individual animals: 3 mg/kg d-amphetamine base, Rat #1-#4; for Mean plasma d-amphetamine concentration: n=4
[5] = steady state, 70 mg once daily for 7 days, healthy adults, fasting, mean n = 11
[6] = 30 min iv, 1 mg/kg d-amphetamine base, individual dogs, 1 mg/kg
[7] = male, beagle, dog, plasma, iv, 1 mg/kg, 30 min iv, 1 mg/kg d-amphetamine base, individual dogs
[8] = male, beagle, dog, plasma, po, 1 mg/kg, oral, 1 mg/kg d-amphetamine base, individual dogs
[9] = oral, 1 mg/kg d-amphetamine base, individual dogs, 1 mg/kg

Compound: CC(Cc1ccccc1)NC(=O)C(N)CCCCN [L-lysine-d-amphetamine, 2,6-diaminohexanoic acid-(1-methyl-2-phenylethyl)-amide]
- Mortality (rats; oral, 1000 mg/kg): only one death occurred out of a group of six animals
- Lethal oral dose (rats; single oral administration): above 1000 mg/kg
- Time within which L-lysine-d-amphetamine was completely eliminated ([1]; healthy adults, 70 mg): ≤ 6 h
- Tolerability ([1]; healthy adults, 70 mg, 7 days): well tolerated
- AUC(0-inf) ([1]; human, in vivo, 70 mg): 61.1 ng·h/mL
- Cmax ([1]; human, in vivo, 70 mg): 47.9 ng/mL
- Tmax ([1]; human, in vivo, 70 mg): 68.4 min
- half-life ([1]; human, in vivo, 70 mg): 25.8 min
- AUC(0-t) ([1]; human, in vivo, 70 mg, AUC0-24 of intact L-lysine-d-amphetamine, steady state, 70 mg once daily for 7 days, healthy adults, fasting, mean n = 11): 60.7 ng·h/mL
- AUC(0-t) ([1]; human, in vivo, 70 mg, AUC0-t of intact L-lysine-d-amphetamine, steady state, 70 mg once daily for 7 days, healthy adults, fasting, mean n = 11): 59.4 ng·h/mL
- AUC(0-t) ([1]; human, in vivo, 70 mg, Mean AUC0-24 of intact L-lysine-d-amphetamine, healthy adults, 70 mg once daily, after dose 7): 60.7 ng·h/mL
- AUC0-∞ of intact L-lysine-d-amphetamine [1, 5]: 61.06 ng·h/mL
- Cmin of intact L-lysine-d-amphetamine [1, 5]: 0.0 ng/mL
- FI of intact L-lysine-d-amphetamine [1, 5]: 1896.06%
- AUC0-t of L-lysine-d-amphetamine [2, 6]: 1072.3 ng·h/mL and 914.1 ng·h/mL
- Cmax of L-lysine-d-amphetamine [2, 6]: 1826.4 ng/mL and 1654.2 ng/mL
- MRT of L-lysine-d-amphetamine [2, 6]: 19.2 min and 18 min
- Vss of L-lysine-d-amphetamine [2, 6]: 0.6034 L/kg and 0.656 L/kg
- t1/2 of L-lysine-d-amphetamine [2, 6]: 63 min
- Time by which L-lysine-d-amphetamine fell below the quantifiable limit (1 ng/mL) ([2]; IV infusion, post-dose): approximately 8 hours
- AUC(0-t) [2, 7]: 898 ng·h/mL
- AUC(0-inf) [2, 7]: 900 ng·h/mL
- clearance ([2]; male, beagle, dog, plasma, iv, 1 mg/kg, 30 min iv, 1 mg/kg d-amphetamine base, individual dogs, read-out: CL of L-lysine-d-amphetamine (converted)): 37 mL/min/kg
- Cmax [2, 7]: 1470 ng/mL
- MRT [2, 7]: 21.6 min
- Vd ([2]; male, beagle, dog, plasma, iv, 1 mg/kg, 30 min iv, 1 mg/kg d-amphetamine base, individual dogs, read-out: Vss of L-lysine-d-amphetamine): 0.807 L/kg
- half-life [2, 7]: 43.2 min
- AUC(0-t) ([2]; male, beagle, dog, plasma, iv, 1 mg/kg, 30 min iv, 1 mg/kg d-amphetamine base, mean of 3 dogs): 962 ng·h/mL
- clearance ([2]; male, beagle, dog, plasma, iv, 1 mg/kg, 30 min iv, 1 mg/kg d-amphetamine base, mean of 3 dogs, read-out: CL of L-lysine-d-amphetamine (converted)): 34.8 mL/min/kg
- clearance ([2]; male, beagle, dog, plasma, iv, 1 mg/kg, IV 30-min infusion, 1 mg/kg, read-out: Mean clearance of L-lysine-d-amphetamine): 34.8 mL/min/kg
- AUC(0-t) [2, 8]: 368 ng·h/mL
- AUC(0-inf) [2, 8]: 369 ng·h/mL
- CL/F ([2]; male, beagle, dog, plasma, po, 1 mg/kg, oral, 1 mg/kg d-amphetamine base, individual dogs, read-out: CL/F of L-lysine-d-amphetamine (converted)): 90.4 mL/min/kg
- Cmax [2, 8]: 407 ng/mL
- bioavailability ([2]; male, beagle, dog, plasma, po, 1 mg/kg, oral, 1 mg/kg d-amphetamine base, individual dogs, read-out: F (bioavailability) of L-lysine-d-amphetamine): 34.3%
- MRT [2, 8]: 44.4 min
- half-life [2, 8]: 28.8 min
- AUC(0-t) ([2]; male, beagle, dog, plasma, po, 1 mg/kg, oral, 1 mg/kg d-amphetamine base, mean of 3 dogs): 318 ng·h/mL
- AUC0-t of L-lysine-d-amphetamine [2, 9]: 310.8 ng·h/mL and 275.3 ng·h/mL
- Cmax of L-lysine-d-amphetamine [2, 9]: 227.4 ng/mL and 350.2 ng/mL
- F (bioavailability) of L-lysine-d-amphetamine [2, 9]: 34.0% and 30.8%
- MRT of L-lysine-d-amphetamine [2, 9]: 61.8 min and 40.8 min
- t1/2 of L-lysine-d-amphetamine [2, 9]: 27 min and 14.4 min
- Hydrolysis by commercial acids and bases ([3]; up to 24 h): ineffective
- d-amphetamine release ([3]; Miracle-Gro®): 7%
- d-amphetamine release ([3]; Olympic® Deck Cleaner): 4%

Compound: d-amphetamine
- AUC (0-8 h) of d-amphetamine ([4]; 3 mg/kg): 341 ± 35 ng·h/mL
- Cmax of d-amphetamine ([4]; 3 mg/kg): 111 ± 27 ng/mL
- Mean Peak of d-amphetamine ([4]; 3 mg/kg): 129 ng/mL
- Mean Peak, Percent Amphetamine ([4]; 3 mg/kg): 100%
- Plasma concentrations of d-amphetamine, individual animals ([4]; 0.5 h): 144 ng/mL and 157 ng/mL and 101 ng/mL and 115 ng/mL
- Plasma concentrations of d-amphetamine, individual animals ([4]; 1 h): 152 ng/ml and 78 ng/ml (2×) and 115 ng/ml
- Plasma concentrations of d-amphetamine, individual animals ([4]; 3 h): 34 ng/mL and 45 ng/mL and 72 ng/mL and 38 ng/mL
- Plasma concentrations of d-amphetamine, individual animals ([4]; 5 h): 20 ng/mL and 14 ng/mL and 12 ng/mL and 15 ng/mL
- Plasma concentrations of d-amphetamine, individual animals ([4]; 8 h): 3 ng/ml (2×) and 2 ng/ml (2×)
- Mean plasma d-amphetamine concentration ([4]; 3 mg/kg, 0.5 h): 129 ng/mL
- Mean plasma d-amphetamine concentration ([4]; 3 mg/kg, 1 h): 106 ng/mL
- Mean plasma d-amphetamine concentration ([4]; 3 mg/kg, 3 h): 47 ng/mL
- Mean plasma d-amphetamine concentration ([4]; 3 mg/kg, 5 h): 15 ng/mL
- Mean plasma d-amphetamine concentration ([4]; 3 mg/kg, 8 h): 2 ng/mL
